Results: patent publication US20190137505A1 (THE ARIZONA BOARD OF REGENTS ON BEHALF OF THE UNIVERSITY OF …, priority 2015, published 2019)

Target: T1, plasminogen (Homo sapiens, UniProt P00747)
T1 construct: Glu-Pg, uPA, tPA, fibrinogen, and chromogenic substrate for Pn were purchased from Molecular Innovations (Novi, Mich.); purchased Molecular Innovations (Novi, Mich.)
Assay: LC-MS/MS identification of sites of MG adduction on plasminogen in vitro (Tables 1 and 12)
Details: 500 μM MG, 24 hr
Experimental: 10 μg Pg was incubated with MG (50-500 μM) in tris-buffered saline (TBS) for 24 hours at 37° C. Following modification, sample volumes were increased to 150 μL and placed in 5 kDa spin filters to reduce volume and remove excess MG from solution.
MG-modified (500 μM) and unmodified Pg control (same incubation conditions without MG) were added to 250 μL amount of rehydration buffer (6M urea, 2M thiourea, 2% CHAPS, 100 mM DTT, 0.5% 3-10 ampholytes) and 5 μL of 3-10 ampholytes (Bio-Rad). Sample rehydrated with a 13 cm 4-7 pH isoelectric focusing strip (GE Healthcare) overnight. Following rehydration, strips were placed in a Bio-Rad PROTEAN IEF Cell focusing instrument. Strips were first focused for 1 hour at 500 V, and then run at a maximum of 8,000V until the strips have reached a final total of 45,000 V/hrs at which point gels are held at 500V until removed. Focused strips were removed, reduced with DTT, cysteines carbamidomethylated with iodoacetamide, and run on a 4-20% gradient Criterion gel for 55 minutes at 200V. Gels were stained for stained according to manufacturer instructions with Imperial Blue Protein (ThermoScientific, Rockford, Ill.) and destained immediately with water. Gel bands were excised and trypsin digested.
Coomassie stained gel-bands were excised and washed in ddH2O for 15 min. H2O was removed and bands were incubated in 50/50 acetonitrile (ACN):ddH2O for 15 min. ACN:ddH2O was removed and bands were incubated with ACN for 5 min. ACN was removed and gels were incubated with 100 mM ammonium bicarbonate (AMBIC). An equal volume of ACN was added to make 1:1 solution and was incubated for 15 min. The ACN/AMBIC solution was removed and remaining gel bands were dried by speed-vacuum. 10 mM dithiothreitol (DTT) was added to each band and incubated at 56° C. for 45 min. DTT was removed and sample brought to room temperature (RT). Iodoacetamide (55 mM) was added to each sample and incubated at RT for 30 min in dark. Iodoacetamide was removed and 100 mM AMBIC was added and bands were incubated for 5 min. An equal volume of ACN was added to make a 1:1 solution and incubated for 15 min. The ACN/AMBIC solution was removed and bands were dried by speed-vacuum. Bands were digested with trypsin (400 ng/band) in 50 mM AMBIC and incubated on ice for 45 min. Tryptic solution was removed and 50 mM AMBIC was added to each band and incubated overnight at 37° C. to complete digestion. Digests were acidified using 10% trifluoroacetic acid (TFA). Supernatant was saved. Band was covered with TFA:ACN (0.1%:60%) and sonicated at 20° C. water bath for 30 min. Supernatant was combined with previous fraction. Sampled were speed vacuumed to a final volume of 10 μL prior to LC-MS/MS analysis on an LTQ Orbitrap Velos mass spectrometer as described below.
LC-MS/MS analysis of in-gel trypsin digested-proteins (Shevchenko et al., 1996) was carried out using a LTQ Orbitrap Velos mass spectrometer (Thermo Fisher Scientific, San Jose, Calif.) equipped with an Advion nanomate ESI source (Advion, Ithaca, N.Y.), following ZipTip (Millipore, Billerica, Mass.) C18 sample clean-up according to the manufacturer's instructions. Peptides were eluted from a C18 precolumn (100-μm id×2 cm, Thermo Fisher Scientific) onto an analytical column (75-μm ID×10 cm, C18, Thermo Fisher Scientific) using a 5-20% gradient of solvent B (acetonitrile, 0.1% formic acid) over 65 minutes, followed by a 20-35% gradient of solvent B over 25 minutes, all at a flow rate of 400 nl/min. Solvent A consisted of water and 0.1% formic acid. Data dependent scanning was performed by the Xcalibur v 2.1.0 software (Andon et al., 2002) using a survey mass scan at 60,000 resolution in the Orbitrap analyzer scanning m/z 350-1600, followed by collision-induced dissociation (CID) tandem mass spectrometry (MS/MS) of the fourteen most intense ions in the linear ion trap analyzer. […]

T1 sequence (P00747 20-810 limits assumed): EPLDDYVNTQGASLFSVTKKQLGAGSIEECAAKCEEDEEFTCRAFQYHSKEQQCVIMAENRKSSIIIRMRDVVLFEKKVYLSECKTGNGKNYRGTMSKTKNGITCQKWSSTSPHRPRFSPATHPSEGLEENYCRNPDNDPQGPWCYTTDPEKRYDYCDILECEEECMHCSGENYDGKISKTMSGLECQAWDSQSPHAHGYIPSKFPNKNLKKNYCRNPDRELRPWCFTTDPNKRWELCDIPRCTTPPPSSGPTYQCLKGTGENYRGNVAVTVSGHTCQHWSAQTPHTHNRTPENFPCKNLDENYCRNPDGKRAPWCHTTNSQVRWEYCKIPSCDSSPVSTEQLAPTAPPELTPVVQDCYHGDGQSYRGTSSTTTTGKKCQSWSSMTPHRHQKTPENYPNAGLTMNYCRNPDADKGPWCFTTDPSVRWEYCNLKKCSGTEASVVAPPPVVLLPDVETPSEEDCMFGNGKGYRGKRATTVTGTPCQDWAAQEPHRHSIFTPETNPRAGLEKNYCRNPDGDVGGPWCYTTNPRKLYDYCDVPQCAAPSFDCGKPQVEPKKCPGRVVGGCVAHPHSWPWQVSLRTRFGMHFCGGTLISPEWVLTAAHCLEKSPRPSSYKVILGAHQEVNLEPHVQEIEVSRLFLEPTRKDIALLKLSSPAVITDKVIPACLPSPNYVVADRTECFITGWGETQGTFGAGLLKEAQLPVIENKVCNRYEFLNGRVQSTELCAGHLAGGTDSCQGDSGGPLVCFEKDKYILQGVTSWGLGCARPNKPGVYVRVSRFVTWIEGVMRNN

SMILES: CC(=O)C=O [MG, Methylglyoxal]
- Spectra Observed (site 312, MG-DH, RAPWC(+57)HTTNSQVR): 10
- Spectra Observed (site 312, MG-HI, RAPWC(+57)HTTNSQVR): 8
- Spectra Observed (site 324, MG-DH, RAPWC(+57)HTTNSQVRWEYC(+57)K): 4
- Spectra Observed (site 324, MG-HI, APWC(+57)HTTN SQVRWEYC(+57)K): 3
- Spectra Observed (site 324, MG-HI, RAPWC(+57)HTTNSQVRWEYC(+57)K): 7
- Spectra Observed (site 389, MG-DH, C(+57)QSWSSMTPHRHQK): 2
- Spectra Observed (site 389, MG-DH, KC(+57)QSWSSMTPHRHQK): 1
- Spectra Observed (site 389, MG-HI, C(+57)QSWSSMTPHRHQK): 4
- Spectra Observed (site 389, MG-HI, KC(+57)QSWSSMTPHRHQK): 1
- Spectra Observed (site 474, MG-DH, GKRATTVTGTPC(+57)QDWAAQEPHR): 1
- Spectra Observed (site 474, MG-DH, RATTVTGTPC(+57)QDWAAQEPHR): 3
- Spectra Observed (site 474, MG-HI, GKRATTVTGTPC(+57)QDWAAQEPHR): 4
- Spectra Observed (site 474, MG-HI, RATTVTGTPC(+57)QDWAAQEPHR): 3
- Spectra Observed (site 493, MG-DH, ATTVTGTPC(+57)QDWAAQEPHRHSIFTPETNPR): 4
- Spectra Observed (site 493, MG-DH, RATTVTGPC(+57)QDWAAQEPHRHSIFTPETNPR): 3
- Spectra Observed (site 493, MG-HI, ATTVTGTPC(+57)QDWAAQEPHRHSIFTPETNPR): 6
- Spectra Observed (site 493, MG-HI, RATTVTGPC(+57)QDWAAQEPHRHSIFTPETNPR): 4
- Spectra Observed (site 504, MG-DH, HSIFTPETNPRAGLEK): 9
- Spectra Observed (site 504, MG-HI, HSIFTPETNPRAGLEK): 16
- Spectra Observed (site 530, MG-DH, NPDGDVGGPWC(+57)YTTNPRK): 9
- Spectra Observed (site 530, MG-HI, NPDGDVGGPWC(+57)YTTNPRK): 12
- Spectra Observed (site 530, MG-HI, NYC(+57)RNPDGDVGGPWC(+57)YTTNPRK): 3
- Spectra Observed (site 561, MG-DH, C(+57)PGRVVGGC(+57)VAHPHSWPWQVSLR): 5
- Spectra Observed (site 561, MG-DH, CPGRVVGGCVAHPHSWPWQVSLR): 1
- Spectra Observed (site 561, MG-DH, KC(+57)PGRVVGGC(+57)VAHPHSWPWQVSLR): 10
- Spectra Observed (site 561, MG-DH, KCPGRVVGGCVAHPHSWPWQVSLR): 1
- Spectra Observed (site 561, MG-HI, C(+57)PGRVVGGC(+57)VAHPHSWPWQVSLR): 5
- Spectra Observed (site 561, MG-HI, KC(+57)PGRVVGGC(+57)VAHPHSWPWQVSLR): 12
- Spectra Observed (site 582, MG-DH, TRFGMHFC(+57)GGTLISPEWVLTAAHC(+57)LEK): 1
- Spectra Observed (site 582, MG-HI, TRFGM(+16)HFC(+57)GGTLISPEWVLTAAHC(+57)LEK): 1
- Spectra Observed (site 582, MG-HI, TRFGMHFC(+57)GGTLISPEWVLTAAHC(+57)LEK): 1
- Spectra Observed (site 644, MG-HI, LFLEPTRK): 2
- Spectra Observed (site 712, MG-DH, VC(+57)NRYEFLNGR): 5
- Spectra Observed (site 712, MG-HI, VC(+57)NRYEFLNGR): 4
- Spectra Observed (site 767, MG-DH, DKYILQGVTSWGLGC(+57)ARPNKPGVYVR): 8
- Spectra Observed (site 767, MG-DH, YILQGVTSWGLGC(+57)ARPNKPGVYVR): 6
- Spectra Observed (site 767, MG-HI, DKYILQGVTSWGLGC(+57)ARPNKPGVYVR): 11
- Spectra Observed (site 767, MG-HI, YILQGVTSWGLGC(+57)ARPNKPGVYVR): 6
- Spectra Observed (site 779, MG-DH, VSRFVTWIEGVM(+16)R): 5
- Spectra Observed (site 779, MG-DH, VSRFVTWIEGVMR): 2
- Spectra Observed (site 779, MG-HI, VSRFVTWIEGVM(+16)R): 9
- Spectra Observed (site 779, MG-HI, VSRFVTWIEGVMR): 4
- Spectra Observed (site 789, MG-DH, FVTWIEGVM(+16)RNN): 6
- Spectra Observed (site 789, MG-DH, FVTWIEGVMRNN): 13
- Spectra Observed (site 789, MG-HI, FVTWIEGVM(+16)RNN): 10
- Spectra Observed (site 789, MG-HI, FVTWIEGVMRNN): 14
- Spectra Observed (sites 115/117, MG-DH, MG-HI, WSSTSPHRPRFSPATHPSEGLEENYC(+57)R): 2
- Spectra Observed (sites 115/117, MG-DH, WSSTSPHRPRFSPATHPSEGLEENYC(+57)R): 1
- Spectra Observed (sites 115/117, MG-HI, WSSTSPHRPRFSPATHPSEGLEENYC(+57)R): 3
- Spectra Observed (sites 220/223, MG-DH, NPDRELRPWC(+57)FTTDPNKR): 3
- Spectra Observed (sites 220/223, MG-HI, MG-DH, NPDRELRPWC(+57)FTTDPNKR): 9
- Spectra Observed (sites 220/223, MG-HI, NPDRELRPWC(+57)FTTDPNKR): 8
- Spectra Observed (sites 312/324, MG-DH, MG-HI, RAPWC(+57)HTTNSQVRWEYC(+57)K): 7
- Spectra Observed (sites 312/324, MG-DH, RAPWC(+57)HTTNSQVRWEYC(+57)K): 3
- Spectra Observed (sites 312/324, MG-HI, RAPWC(+57)HTTNSQVRWEYC(+57)K): 2
- Spectra Observed (sites 474/493, MG-DH, MG-HI, RATTVTGTPCQDWAAQEPHRHSIFTPETNPR): 1
- Spectra Observed (sites 474/493, MG-HI, RATTVTGTPC(+57)QDWAAQEPHRHSIFTPETNPR): 1
- Spectra Observed (sites 489/504, MG-HI, MG-DH, ATTVTGTPC(+57)QDWAAQEPHRHSIFTPETNPRAGLEK): 1
- Spectra Observed (sites 779/789, MG-DH, VSRFVTWIEGVM(+16)RNN): 1
- Spectra Observed (sites 779/789, MG-HI, MG-DH, VSRFVTWIEGVM(+16)RNN): 3
- Spectra Observed (sites 779/789, MG-HI, VSRFVTWIEGVM(+16)RNN): 3
